The test system of data set [1] is basal serum prolactin levels. The experiment in a line: Lowering basal serum prolactin levels in the male rat (prolactin secretion inhibition). Type of data set: in vivo. The conditions noted are these: lowering basal serum prolactin levels, male rat, after 4 hours; read-out: ID50 after 4 hours. The source says:
Many of the above mentioned compounds are published as prolactin secretion inhibitors, some of which are extremely potent and have long lasting activity. The potency of the compounds as prolactin secretion inhibitors can be determined in standard tests, e.g. by lowering basal serum prolactin levels in the male rat.
Results with representative compounds include:-

The target in data set [2] is 5-HT sensitive adenylate cyclase. In words: Activation of 5-HT sensitive adenylate cyclase of the liver fluke (method of Markstein). The conditions noted are these: adenylate cyclase stimulated by serotonin. Type of data set: biochemical. An excerpt: A group of compounds comprises compounds which are D₂ agonists without any antagonistic activity. Another group of compounds includes those compounds which are serotonin agonists, e.g. as indicated in standard in vitro binding tests and by activation of 5-HT sensitive adenylate cyclase of the liver fluke according to the method of R.Markstein, Neurochemical effects of some ergot derivatives: A basis for their antiparkinson actions. J.Neural transm 51:39, (1981).
Examples of such compounds include compound C and pergolide. Compound C, pergolide and 5-HT have efficacies of 90,80 and 100 respectively and pD₂ [log EC₅₀] of 6.9, 6.9 and 7.7 respectively in this test on adenylate cyclase stimulated by serotonin.

Data set [3] is described as follows: Acute toxicity (LD50) in the mouse. As to conditions: in vivo. An excerpt:
(§1) Toxicity data for some of the comounds of the invention have been published. Such data may be determined by routine experimentation. TOXICITY DATA for representative compounds NTEL = No toxic effect level.

In data set [4] the test system is ornithine decarboxylase (ODC). The experiment in a line: Biosynthetic rate in the rat: ornithine decarboxylase activity in tissues after Complete Freund's adjuvant. Type of data set: in vivo. As to conditions: Freund's adjuvant treated rats. As to the method:
The marker used in this study to determine the biosynthetic rate of the lymphoid and endocrine tissues was ornithine decarboxylase (ODC). ODC, the rate-limiting enzyme in polyamine biosynthesis, serves as a early marker of G₁ cell cycle progression of proliferating tissues and increased biosynthesis in secretory tissues, in response to trophic or stimulatory substances. There is a peak activity of ODC subsequent to stimulation in vivo within 4 hours - making this enzyme a useful intracellular marker for understanding the relationship between agonists and target tissue response. The ODC activity of lymphoid tissues appears to relate to a functional response to the immune system.
In a typical test method KFM male rats (150 - 175 g) were treated with the compound of the invention one day prior to the administration of Complete Freund's adjuvant in analogous manner to that described above. Administration of the compound was repeated once time per day afterwards. Two days later the animals were decapitated, the tissues removed and frozen in liquid nitrogen. The ODC activities (pmol/30 min./mg protein) are measured. The ODC activity was determined by measuring the liberation of 14CO₂ from L-(1-14C)-ornithine as described by Snyder et al Proc.Natl.Acad.Sci.60:1420, 1968.

Data set [5] has as its system Local graft versus host (GvH). The experiment in a line: Local graft versus host (GvH) reaction in the rat, lymph node weight. Type of data set: in vivo. The procedure: Spleen cells (ca 1 x 10⁷) are taken from 6 week old Wistar/Furth/(W/F) rats and are injected into the left hind paw of female (F 344 x WF) F1 rats weighing about 100 g. The rats had been treated daily with the compound from 7 days before the injection and are treated daily for 3 days thereafter. The difference in weight between the left and right lymph nodes is taken as the parameter for evaluating the reaction.

Data set [6] is described as follows: No toxic effect level (NTEL), repeated oral dosing in rats. As to conditions: rat, in vivo, 4 weeks, p.o.
From the text: as §1

Data set [7] can be described thus: No toxic effect level (NTEL) / tolerability, repeated oral dosing in dogs. As to conditions: dog, in vivo, p.o.
From the text: as §1

Data set [8] concerns splenic lymphocytes forming lytic antibodies to the SRBC. In words: Antibody producing cell development in the mouse (PFC test), plaque forming cells to SRBC. Type of data set: in vivo. The procedure: These methods permit the quantitation of the number of splenic lymphocytes forming lytic antibodies to the SRBC and the distinction between IgM and IgG producing cells.
The intravenous injection of SRBC (5 x 10⁷) in 0.2 ml i.v. served as the primary immunization antigen source in the mouse studies. The mice in these studies were female C57 black of ca 20 grams body weight. All animals were pretreated with the respective compounds for one day prior to the SRBC treatment and daily treated thereafter at 11.00 h for a total of 6 days. The spleens were removed for the determination of PFC numbers to the SRBC antigen.
The spleen cells were suspended in Hepes-buffered Balanced Salt Solution (HBSS), washed once, and resuspended in a volume adjusted according to the expected number of plaque forming cells. The direct quantitiation of IgM-PFC was performed by plaquing 0.1 ml of the diluted splenic cells with 0.025 ml of SRBC (30%), 0.3 ml Agar (0.5% in HBSS), and 0.025 ml complement (guinea pig serum) and plated on Petri dishes. An indirect method of IgG-PFC quantitation was performed with a monoclonal antibody to the IgM (1:4 dilution) plus an anti-gama polyspecific antiserum (1:800) to permit complement fixation. The splenic lymphocytes from each mouse spleen were plated to quantitate IgM- and IgG-PFC in duplicate. All plates were incubated for 4 hours at 37°C and then stored overnight in humidified chambers at 4°C. Plaques were counted by hand with the use of a plaque counter.

Data set [9] concerns immuno-responsiveness of effector lymphocytes to histoincompatible (allogenic) lymphocytes. In words: Mixed lymphocyte reaction test in mice, 2nd variant (both strains treated, ex vivo 3H-thymidine incorporation). The conditions noted are these: at least 7 days. The procedure: The compounds furthermore inhibit the immuno-responsiveness of effector lymphocytes to histoincompatible (allogenic) lymphocytes in a variante of the above two way MLR (mixed lymphocyte reaction) test.
Mice of two histo-incompatible strains (Balb/c and CBA) (6-8 weeks old) were once daily treated s.c. with a compound of the invention for at least 7 days. The spleens are removed 3 hours after the last drug administration. The MLR test is effected with 0.5 x 10⁶ spleen cells from Balb/c mice and 0.5 x 10⁶ spleen cells from CBA mice the latter having been irradiated with 2000 rad. The spleen cells of the Balb-c mice are incubated with the allogenic CBA-spleen cells for 4 days. Radioactive thymidine is added and after 16 hours the incorporation of ³H-thymidine in the DNA of the mouse spleen cells was measured.

For data set [10], the system named is lymphocyte responsiveness to allogenic stimulation. The experiment in a line: Mixed lymphocyte reaction test in mice, 1st variant (responder mice treated, ex vivo 3H thymidine incorporation). The conditions noted are these: 5 mg/kg s.c., five days. As to the method: The ability of the compounds of the invention to reduce lymphocyte responsiveness to allogenic stimulation is measured in the mixed lymphocyte reaction test (MLR) wherein irradiated allogenic cells from stimulator mice induce a proliferative response in responder histo-incompatible cells.
Responder mice (Balb/c female, 8-10 weeks old) are treated sub-cutaneously for five days with the compounds of the invention. Equal numbers of murine stimulator lymphocytes (from stimulator, CBA, mice; lymphocytes irradiated in vitro with 200 R) and effector lymphocytes from the treated animals or control animals are incubated for five days. The 3H thymidine incorporated into lymphocyte DNA was used as a parameter for cell proliferation in response to an allogenic stimulus. [See S.S.Rich et al, J.Exp.Medicine, (1974), 140, 1588-1693].

For the compound `CCCN1C[C@@H](NS(=O)(=O)N(CC)CC)C[C@@H]2c3cccc4[nH]cc(c34)C[C@H]21` [Compound C, 6-n-propyl-8α-(N,N,-diethylsulphamoylamino)-ergoline-I], the ED50 in data set [1] was found to be 0.001 mg/kg. In [2], the “pD₂ [log EC₅₀]” value was determined as 6.9. The LD50 at 168 h in data set [3] (iv, over 7 days, read-out: acute LD₅₀ (mouse) i.v.) worked out at 45 mg/kg. For the same compound, the LD50 at 336 h in data set [3] (po, over 14 days, read-out: acute LD₅₀ (mouse) p.o.) came out at 69 mg/kg. Also, the figures for the “ODC activities, Adrenal Medulla” value in [4] (0.01 mg/kg), in data set [4] (0.1 mg/kg) and in data set [4] (0.5 mg/kg) were 17.10 pmol/30 min./mg protein, 180.0 pmol/30 min./mg protein and 95.0 pmol/30 min./mg protein, respectively. Moreover, the “ODC activities, Anterior Pituitary” value in [4] (0.01 mg/kg) amounted to 32.60 pmol/30 min./mg protein; in [4] (0.1 mg/kg), 33.70 pmol/30 min./mg protein; in data set [4] (0.5 mg/kg), 41.20 pmol/30 min./mg protein. The entries for the “ODC activities, Bone Marrow” value in data set [4] (0.01 mg/kg), in data set [4] (0.1 mg/kg) and in data set [4] (0.5 mg/kg) were 17.40 pmol/30 min./mg protein, 45.80 pmol/30 min./mg protein and 43.40 pmol/30 min./mg protein, respectively. Moreover, the “ODC activities, Lymph Nodes” value in [4] (0.01 mg/kg) was 43.10 pmol/30 min./mg protein; in [4] (0.1 mg/kg), 107.30 pmol/30 min./mg protein; in data set [4] (0.5 mg/kg), 103.90 pmol/30 min./mg protein. Further, the “ODC activities, Spleen” value in data set [4] (0.01 mg/kg) is reported as 12.14 pmol/30 min./mg protein; in data set [4] (0.1 mg/kg), 34.62 pmol/30 min./mg protein; in data set [4] (0.5 mg/kg) it was 37.96 pmol/30 min./mg protein. The entries for the “ODC activities, Thymus” value in data set [4] (0.01 mg/kg), in [4] (0.1 mg/kg) and in [4] (0.5 mg/kg) were 98.80 pmol/30 min./mg protein, 171.40 pmol/30 min./mg protein and 177.0 pmol/30 min./mg protein, respectively. Also, the Weight lymph node in data set [5] (0.001 mg/kg/day, control ca 33 mg) amounted to 24 mg; in [5] (0.01 mg/kg/day, control ca 33 mg), 19 mg; in data set [5] (0.1 mg/kg/day, control ca 33 mg) it was 18 mg. Further, the “Percentage Difference” value in data set [5] (0.001 mg/kg/day, versus control ca 33 mg) is on record as -28%; in [5] (0.01 mg/kg/day, versus control ca 33 mg) it was -42%; in data set [5] (0.1 mg/kg/day, versus control ca 33 mg), -45%. Besides, the NOAEL at 672 h in data set [6] was 0.19 mg/kg/day; in data set [7] (no toxic effect level, 4 weeks, read-out: NTEL (4 weeks) dogs), 0.2 mg/kg/day. The percent change from control at 0.01 mg/kg/day in data set [8] (Mus musculus, Splenic lymphocyte, po, Test B, 0.01 mg/kg/day p.o., read-out: IgM % of control) was -49%. In data set [8] (Mus musculus, Splenic lymphocyte, po, Test B, 0.1 mg/kg/day p.o., read-out: IgM % of control), the percent change from control at 0.1 mg/kg/day was -26%. The percent change from control at 1 mg/kg/day in data set [8] (Mus musculus, Splenic lymphocyte, po, Test B, 1 mg/kg/day p.o., read-out: IgM % of control) was -1%. Moreover, the “IgM (PFC x 10^3 per spleen)” value in data set [8] (Test B, 0.01 mg/kg/day p.o.) is given as 167.2 PFC x 10^3 per spleen; in data set [8] (Test B, 0.1 mg/kg/day p.o.) it was 244.4 PFC x 10^3 per spleen; in data set [8] (Test B, 1 mg/kg/day p.o.) it was 327.0 PFC x 10^3 per spleen. The “reduction of IgM titre” value in data set [8] (combination: Cyclosporine 60 mg/kg/day p.o. and Compound C 0.1 mg/kg/day p.o.) amounted to 63%. For the same compound, the results for the Change from control in data set [9] (0.05 mg/kg s.c. once daily), in [9] (0.5 mg/kg s.c. once daily) and in data set [9] (5 mg/kg s.c. once daily) were -71%, -50% and -20%, respectively.
Regarding `Cc1[nH]c2cccc3c2c1C[C@@H]1[C@@H]3C[C@H](NC(=O)C(C)(C)C)CN1C` [Compound E, (5R,8S,10R)-2,6-dimethyl-8α-pivaloylamino-ergoline], the “dpm x 10^3/10 cells ± SD” value in data set [10] (3H thymidine incorporation) came out at 103218 ± 21497 dpm x 10^3/10 cells. Besides, in data set [10] (Mus musculus, Lymphocyte, sc, 120 h, read-out: inhibited the response), the inhibition at 5 mg/kg is around 21%. Besides, the Weight lymph node result in data set [5] (5 mg/kg/day, control ca 55 mg) was “ca 39 mg”. The “Percentage Difference” value in [5] (5 mg/kg/day, versus control ca 55 mg) is given as -41%. Further, the NOAEL at 672 h in [7] (over 4 weeks, Beagle dogs, read-out: Well tolerated dose) is at least 3 mg/kg/day.

Source of the values: EP0231151A2, “Immunosuppressant agents” (priority 1986, dated 1987).
